# Source: patent US10617736B2, “Method for modulating insulin-independent glucose transport using teneurin C-terminal associated peptide (TCAP)” (priority 2014, dated 2020)
# Like-named read-outs stand apart in the source and are kept apart here. Square brackets hold non-standard residues; d marks the D form. Ends that are not written are not given here. pGlu = O=C1CC[C@@H](C(=O)O)N1
# Tests used:
# [1] = test system: C2C12 myocytes; assay: 3H-2-deoxyglucose uptake in C2C12 myocytes; type: cell-based, mouse; conditions: 100 nM, over two hours (FIG. 20)
# Procedure: The effect of TCAP-1 on glucose uptake in muscle cells was examined in a C2C12 mouse myocyte cell line. C2C12 myocytes were cultured in Dulbecco's Modified Eagle Medium (DMEM) containing 4500 mg/L D-glucose, L-glutamine, and 25 mM HEPES buffer, without sodium pyruvate or phenol red (Gibco, Cat. No. 21063029), supplemented with 20% heat-inactivated fetal bovine serum (FBS), 100 U/ml penicillin and 100 μg/ml streptomycin. Cells were maintained at 80% confluency at 37° C. in a humidified CO2 incubator. To initiate differentiation, myocytes were further cultured in DMEM supplemented with 10% heat-inactivated horse serum (HS), transferrin, 100 U/ml penicillin and 100 μg/ml streptomycin. Myocytes were allowed to differentiate into multi-nucleated myotubes for 5 days before experimentation. 24 hours prior to experimentation, medium was changed. At day 5 of differentiation, cells were deprived of serum and incubated in Minimal Essential Medium containing 1000 mg/L D-glucose, L-glutamine, without nucleosides (Gibco, Cat. No. 12561049) for 5 hours at 37° C. prior to incubation with insulin, TCAP-1, or saline. Cells were washed twice in glucose-free HEPES-buffered solution (HBS), containing 140 mM NaCl, 20 mM HEPES, 5 mM KCl, 2.5 mM MgSO4 and 1 mM CaCl2, followed by determinations of transport of 3H-2-deoxyglucose for 10 minutes at 0.5 μCi/ml at room temperature. Uptake of 3H-2-deoxyglucose was stopped immediately after 10 minutes with three washes of ice-cold 0.9% NaCl solution. Parallel experiments with 5 μM of cytochalasin B were done to ensure that glucose uptake was of transporter-inhibitable transport The cells were digested with 1 ml of 0.05 N NaOH. Cell lysates were used for determination of radioactivity by a beta liquid scintillation counter. Experiments were repeated three times with 3 wells per condition per replication. […] Cell lysates were used for determination of radioactivity by a beta liquid scintillation counter. […]
# [2] = test system: mHypoE-38 neurons; assay: 3H-2-deoxyglucose uptake in mHypoE-38 hypothalamic neurons; type: cell-based, mouse
# Procedure: The effect of TCAP-1 on glucose uptake in brain cells was examined in immortalized […] hypothalamic cells. Immortalized mHypoE-38 hypothalamic embryonic mouse neurons (gift from Dr. Denise Belsham, University of Toronto) were grown in Dulbecco's Modified Eagle Medium (DMEM) containing 4500 mg/L D-glucose, L-glutamine, and 25 mM HEPES buffer, without sodium pyruvate or phenol red (Gibco, Cat. No. 21063029), supplemented with 5% heat-inactivated fetal bovine serum (FBS), 100 U/ml penicillin and 100 μg/ml streptomycin. Cells were maintained at 60-70% confluency at 37° C. in a humidified CO2 incubator. To passage, cells were washed once in sterile PBS, trypsinized and seeded at a density of 100,000 cells per 3.5 cm plate and allowed to grow for 2-3 days. 24 hours prior to experimentation, medium was changed. mHypoE-38 hypothalamic cells were grown in 6-well tissue culture dishes (Corning Incorporated, Cat. No. 3516) at a seeding density of200 000 cells/9.5 cm^2 well in a 37° C. normoxic incubator. Cultures were grown for 36 hours to 85% confluence prior to experimentation. At day 3 post-plating, cells were washed twice with Locke's buffer (154 mM NaCl, 5.6 mM KCl, 2.3 mM CaCl2, 3.6 mM NaHCO3, 5 mM HEPES) without serum and glucose. The culture was incubated in the Locke's buffer for 1 hour at 37° C. followed by exposure to 100 nM insulin, 100 nM TCAP-1, 100 nM SC-TCAP-1, or saline. KCl (40 mM) and […] (0.5 μCi/ml) were added to culture 5 minutes before termination of treatment exposure. Uptake of ^3H-2-deoxyglucose was stopped immediately after 5 minutes with three washes of ice-cold 0.9% NaCl solution. Parallel experiments with 5 μM of cytochalasin B were performed to ensure that glucose uptake was of transporter-inhibitable transport. The cells were digested with 1 ml of 0.05 N NaOH at 0, 15, 30, 45, 60, 90 and 120 minutes after treatment. Cell lysates were used for determination of radioactivity by a beta liquid scintillation counter. Experiments were repeated three times with 3 wells pear condition per replication. […] hypothalamic cells were cultured as above and treated with 100 nM insulin, 100 nM TCAP-1 or saline, exposed to 5.6 mM or 40 mM KCl and 0.5 μCi/well 3H-2-deoxy glucose, and subsequently lysed with 50 mM NaOH. Radioactivity in cell lysates was counted using a liquid scintillation counter.
# [3] = Uptake and clearance of TCAP-1 in plasma after IV or SC injection (TCAP ELISA); type: in vivo, rat; conditions: for half-life: rat, in vivo
# Procedure: Male Wistar rats weighing 400-450 g were obtained from Charles River Laboratories (Montreal, Canada). Rats were singly-housed in standard Plexiglas shoebox cages under standard laboratory conditions, (12 h light:dark cycle, lights on at 0700) with food and water available ad libitum. Testing took place between 0900 and 1200 hours. Rats were given one week to acclimatize to the laboratory before surgery. Rats were anesthetized with isoflurane (2-3% in 100% O2) and a catheter was implanted into the jugular vein.
# The K37 biotinylated TCAP was diluted into 200 ul physiological saline to contain 10.5 ug for 5 nM/kg dose and 52.5 ug for 25 nM/kg dose. The rats weighed 400-450 g. 200 ul of peptide containing solution was delivered through the cannula, different syringe containing saline was connected and 200 ul of saline was delivered to push the peptide into the bloodstream. The third syringe containing the heparin solution was used to fill the line with the lock, 150-200 ul. After 5 min, the lock solution was aspirated into the syringe, and also about 150 ul of the blood were aspirated and disposed off in case of the local contamination with high peptide concentrations. 200 ul of the blood was sampled in a fresh syringe, line flushed with saline first (200 ul) and heparin saline next (150-200 ul).
# (§1) Rats were gently restrained, cannula clamped and unplugged, 1 ml syringe with blunt needle attached to the end of the polyethylene 50 line and the lock solution containing heparin 50-100 U/ml was removed. The line was clamped and a new syringe with a blunt needle attached for withdrawing about 200 ul blood. The line was clamped and syringe removed to recover the blood. This blood sample was used to determine a baseline level of activity. All blood samples were incubated at a room temperature for 10-20 min and centrifuged at 3000 rpm for 5 min to recover the serum. The serum was frozen on dry ice and kept at −80° C. until the assay.
# as §1, with “K37 TCAP was biotin labeled according to the biotinylation method above. Rats” for “Rats”
# For IV administration, rats were gently restrained during the injection procedure. The IV cannula was unplugged and the lock solution (150-200 μl of 50-100 U/ml of heparin, Sigma Scientific) was removed. To obtain a baseline level of activity, 200 μl of blood was withdrawn prior to injection. 200 μl of TCAP-containing solution was delivered through the cannula, followed by 200 μl of saline to push the TCAP solution through the cannula. 150-200 μl of lock solution was injected to fill the catheter. For subcutaneous (SC) administration, rats were gently restrained and injected under the skin with 200 μl of TCAP-1-containing solution with a 23 gauge needle
# Blood samples were obtained from the jugular catheter. Rats were gently restrained, and the IV cannula was unplugged. The lock solution was aspirated along with 150 μl of blood. This mixture was discarded in case of local contamination with high peptide concentrations. A sample of200 μl of blood was obtained in a fresh syringe. The catheter was then flushed with 200 μl of saline and then filled with 150-200 μl of lock solution. Lateral tail vein blood samples were obtained from lightly restrained rats whereby 200 μl of blood was obtained using a 23-gauge needle. A final bleed was achieved via cardiac puncture. […]
# [4] = test system: male Wistar rats; assay: Haematology assays in normal Wistar rats; type: in vivo, rat
# Procedure: (§2) Whole blood samples were collected into plastic microcentrifuge tubes with EDTA-coated capillary tubes. A minimum sample volume of 20 μL was required for the analyses by the Toronto Centre for Phenogenomics (Mount Sinai Hospital, Toronto) using the Hemavet 950Fs Hematology Analyzer. From the whole blood samples, serum was separated from the cells and fibrin by centrifuging the collection tubes for five minutes at 7000 g at 25° C. Afterwards, immediately following collection of serum, the samples were stored and maintained at a freezing temperature of −80° C.
# (§3) Haematology assays were performed on physiological normal rat serum and from Type II Diabetic GK rats obtained at the end of the in vivo studies noted herein in which TCAP-1 was administered to the normal rats and plasma glucose levels were monitored over the course of 1-2 weeks. […] Results are illustrated in FIGS. 6A to 6L.
# [5] = test system: male GK Wistar rats; assay: Haematology assays in Goto-Kakizaki rats; type: in vivo, rat
# Procedure: as §2, §3
substance,measurement,setting,value
"pETHSLELRVSLIGEVQQFIGYENQSDQNYGLLAYFDRVGMS-NH2 ([pGlu]THSLELRVSLIGEVQQFIGYENQSDQNYGLLAYFDRVGMS-NH2) [scTCAP-1, scrambled TCAP control with same amino acid composition but different order, pyroglutamic acid in first position]",3H-2-deoxyglucose uptake signal,[1],lack of positive signal
same,3H-2-deoxyglucose uptake value relative to baseline,"[2]; 100 nM, 40 mM KCl, 60 minutes",61.523±7.545%
same,3H-2-deoxyglucose uptake relative to baseline,"[2]; 100 nM, 40 mM KCl, 90 minutes",68.020±4.812%
same,3HDG uptake in whole cells over time,[2]; Hypo-E38 cells (FIG. 11C-E),no significant glucose uptake
QQLLGTGRVQGYDGYFVLSVEQYLELSDSANNIHFMRQSEI-NH2 (C-terminus assumed) [TCAP-1],time of peak in plasma,"[3]; IV administered, rat plasma",≤ 1 min
same,time until cleared from plasma,[3]; IV-treated animals,about 100 min
same,time to 50% loss from plasma,"[3]; SC administered, rat plasma",about 90 min
same,time until cleared from plasma,"[3]; SC treated animals, highest dose of 125 ng/kg",about 170 min
same,half-life,"[3]; iv, highest dose, read-out: plasma clearance half-life",16 ± 4 min
same,half-life,"[3]; iv, lowest dose, read-out: plasma clearance half-life",4 ± 1 min
same,half-life,"[3]; iv, mid dose, read-out: plasma clearance half-life",7 ± 2 min
same,half-life,"[3]; sc, highest dose, read-out: clearance time (plasma clearance half-life)",36 ± 20 min
same,half-life,"[3]; sc, lowest dose, read-out: clearance time (plasma clearance half-life)",40 ± 4 min
same,half-life,"[3]; sc, mid dose, read-out: clearance time (plasma clearance half-life)",50 ± 11 min
same,haemoglobin concentrations,"[4]; Wistar rats, 1 or 10 nmole/kg (FIG. 6A)",No significant results were observed
same,hematocrit counts,"[4]; Wistar rats, 1 or 10 nmole/kg (FIG. 6B)",No significant results were observed
same,platelet counts,"[4]; Wistar rats, 1 or 10 nmole/kg (FIG. 6C)",No significant results were observed
same,red blood cell counts,"[4]; Wistar rats, 1 or 10 nmole/kg (FIG. 6D)",No significant results were observed
same,"levels of white blood cells, neutrophils or lymphocytes","[4]; Wistar rats, 1 or 10 nmole/kg (FIG. 6E)",No significant results were observed
same,"monocytes, basophils or eosinophils","[4]; Wistar rats, 1 or 10 nmole/kg (FIG. 6F)",No significant results were observed
same,clot formation in blood samples,[4]; observation on collected blood samples,clots formed more frequently in the blood samples of TCAP-1 treated rats
same,haemoglobin concentrations,[5]; 10 nmole/kg (FIG. 6G),No significant results were observed
same,hematocrit counts,[5]; 10 nmole/kg (FIG. 6H),No significant results were observed
same,platelet counts,[5]; 10 nmole/kg (FIG. 6I),No significant results were observed
same,red blood cell counts,[5]; 10 nmole/kg (FIG. 6J),No significant results were observed
same,"levels of white blood cells, neutrophils or lymphocytes",[5]; 10 nmole/kg (FIG. 6K),No significant results were observed
same,"monocytes, basophils or eosinophils",[5]; 10 nmole/kg (FIG. 6L),No significant results were observed
same,"white blood cells, neutrophils and lymphocytes, trend",[5]; results called variable and inconclusive,"appears to be a decrease in white blood cells, neutrophils and lymphocytes"
